Experimental data published in the supplement of paper PMC5579334.

Legend:
HS-PSS [1] = assay: drug sensitivity score (DSS, CellTox-Green cytotoxicity, 72 h) (DSS (dimensionless)); higher = more cytotoxic; extreme values may be limits of the assay
In short: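 MPNST cell lines and primary human Schwann cells were grown for 72 h at 37 °C in 384-well plates containing five 10-fold compound dilutions. CellTox-Green, added before seeding at a final 1:1000 dilution, gave fluorescence from DNA released by disrupted cells, and signals were scaled to vehicle and positive-control wells. Curves were fitted with a four-parameter logistic model. Drug sensitivity score and relative IC50 come from these fits, with IC50 censored at the top concentration.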

YST-1 [2] = assay: drug sensitivity score (DSS, CellTiter-Glo viability, 72 h) (DSS (dimensionless)); higher = more sensitive; extreme values may be limits of the assay
In short: (§1)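 Viability of MPNST cell lines and primary human Schwann cells was read as CellTiter-Glo ATP luminescence after 72 h at 37 °C, 5% CO2, in 384-well plates seeded with 750–1000 cells per well. Each compound had been preprinted at five concentrations in 10-fold steps. Signals were scaled between vehicle and positive-control wells, duplicates averaged where present, and fitted with four-parameter logistic curves. Drug sensitivity score and relative IC50 (censored at the top concentration) come from those fits, and percent inhibition is taken at the top concentration.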

HS-Sch-2 [3] = assay: as above
In short: as §1

HS-PSS [4] = assay: as above
In short: as §1

YST-1 [5] = assay: % inhibition of CellTiter-Glo viability at highest tested concentration (72 h), relative to DMSO and benzethonium chloride controls; higher = more inhibition
In short: as §1

HS-Sch-2 [6] = assay: as above
In short: as §1

HS-PSS [7] = assay: as above
In short: as §1

Row | SMILES | drug sensitivity score (HS-PSS [1]) | drug sensitivity score (YST-1 [2]) | drug sensitivity score (HS-Sch-2 [3]) | drug sensitivity score (HS-PSS [4]) | % inhibition (YST-1 [5]) [%] | % inhibition (HS-Sch-2 [6]) [%] | % inhibition (HS-PSS [7]) [%]
1 | CNC(=O)c1ccc2cc([C@@]3(O)CCn4cncc43)ccc2c1 [Orteronel] (max concentration tested 10000 nM) | 0 | 0 | 0 | 0 | 7.23 | -4.34 | -7
2 | C=CC(=O)Nc1cc(Nc2nccc(-c3cn(C)c4ccccc34)n2)c(OC)cc1N(C)CCN(C)C [Osimertinib] (max concentration tested 2500 nM) | 0.95 | 6.9 | 4.21 | 5.5 | 63.7 | 73.2 | 66.3
3 | O=C(O)C(=O)O.[NH-][C@@H]1CCCC[C@H]1[NH-].[Pt+2] [Oxaliplatin] (max concentration tested 100000 nM) | 3.02 | 19.6 | 11.4 | 8.54 | 97.7 | 100 | 69.2
4 | CN1CCN(c2cc(C(=O)Nc3ccc4c(c3)-c3c(c(C(N)=O)nn3-c3ccc(F)cc3)CC4)c(Cl)cn2)CC1 [PHA 408] (max concentration tested 10000 nM) | 4.95 | 5.73 | 5.4 | 7.02 | 99.9 | 99.8 | 101
5 | CCn1nnc2c(N3CCOCC3)nc(-c3ccc(NC(=O)Nc4ccc(C(=O)N5CCN(C)CC5)cc4)cc3)nc21 [PKI-402] (max concentration tested 2500 nM) | 0.89 | 17.3 | 12.4 | 15.3 | 90.9 | 75.5 | 75.8
6 | O=C(Nc1cc(Cl)cc2c1[nH]c1cnccc12)c1cccnc1 [PS-1145] (max concentration tested 25000 nM) | 0 | 3.62 | 0 | 0.49 | 16.9 | 5.78 | 13.7
7 | COc1cc(Br)c(Nc2nc(-c3c(C)nc4ncccn34)cs2)c(Br)c1 [PTC-209] (max concentration tested 10000 nM) | 0 | 6.29 | 7.96 | 7.63 | 94.4 | 81 | 84.8
8 | C1=N/C2=N/c3ccc(OCCN4CCCC4)c(c3)COC/C=C/COCc3cccc(c3)C(=C1)N2 [Pacritinib] (max concentration tested 10000 nM) | 4.15 | 8.15 | 8.63 | 10.8 | 100 | 99.6 | 99.4
9 | COc1ccc(COc2cc3oc(=O)c4cc(C(C)O)ccc4c3cc2OC)cc1 (stereo not drawn) [Palomid-529] (max concentration tested 10000 nM) | 0 | 0 | 0 | 0 | 10.2 | -4.31 | 2.33
10 | CCOc1cc2ncc(C#N)c(Nc3ccc(F)c(Cl)c3)c2cc1NC(=O)/C=C/CN(C)C [Pelitinib] (max concentration tested 2500 nM) | 1.05 | 4.87 | 11 | 12.8 | 47.9 | 89.6 | 73.9
11 | Nc1nc2[nH]cc(CCc3ccc(C(=O)N[C@@H](CCC(=O)O)C(=O)O)cc3)c2c(=O)[nH]1 [Pemetrexed] (max concentration tested 10000 nM) | 0 | 4.42 | 17.1 | 0 | 19.7 | 62.5 | 6.45
12 | CCCCCCCCCCCCCCCCCCOP(=O)([O-])OC1CC[N+](C)(C)CC1 [Perifosine] (max concentration tested 2500 nM) | 0 | 0 | 0 | 0 | -0.19 | 4.74 | 0.4
13 | FC(F)(F)c1ccc(CNc2ccc(Cc3c[nH]c4ncc(Cl)cc34)cn2)cn1 [Pexidartinib] (max concentration tested 10000 nM) | 0 | 0.84 | 0.57 | 1.79 | 17.3 | 18.9 | 25.9
14 | COc1ccc(Cl)c(Nc2nc3ccccc3nc2NS(=O)(=O)c2cccc(NC(=O)C(C)(C)N)c2)c1 [Pilaralisib] (max concentration tested 2500 nM) | 0 | 2.53 | 0.34 | 0 | 42.6 | 14.3 | 7.45
15 | CC(C)N(C[C@H]1O[C@@H](n2cnc3c(N)ncnc32)[C@H](O)[C@@H]1O)[C@H]1C[C@@H](CCc2nc3cc(C(C)(C)C)ccc3[nH]2)C1 [Pinometostat] (max concentration tested 1000 nM) | 0 | 0 | 0 | 0 | -2.52 | -7.39 | 5.45
16 | NCCNc1ccc(NCCN)c2c1C(=O)c1ccncc1C2=O [Pixantrone] (max concentration tested 10000 nM) | 0 | 2.81 | 2.43 | 4.51 | 54.6 | 50.7 | 77.4
17 | c1cc(CN2CCCNCCNCCCNCC2)ccc1CN1CCCNCCNCCCNCC1 [Plerixafor] (max concentration tested 10000 nM) | 0 | 0 | 0 | 0.55 | -8.03 | 5.96 | 14.2
18 | C=CC(=O)N1CCC(Oc2cc3c(Nc4ccc(Cl)c(Cl)c4F)ncnc3cc2OC)CC1 [Poziotinib] (max concentration tested 1000 nM) | 0 | 0.25 | 0 | 0 | 12.9 | 3.19 | 6.52
19 | CCCCc1nc2cc(/C=C/C(=O)NO)ccc2n1CCN(CC)CC [Pracinostat] (max concentration tested 10000 nM) | 6.63 | 22 | 15.9 | 12.4 | 100 | 101 | 94
20 | CC[C@H](C)C(=O)O[C@H]1C[C@H](O)C=C2C=C[C@H](C)[C@H](CC[C@@H](O)C[C@@H](O)CC(=O)O)[C@H]21 [Pravastatin] (max concentration tested 10000 nM) | 0 | 0 | 0 | 1.44 | 0.31 | -3.68 | 24.1
21 | COc1cccc(OCCCN)c1-c1cc(Nc2cnc(C#N)cn2)n[nH]1 [Prexasertib] (max concentration tested 10000 nM) | 0.01 | 22.2 | 29.9 | 6.05 | 76.3 | 88.6 | 70
22 | Cc1cc(-c2ncc(-c3cccnc3)cc2/C=C/c2ccccc2)cnc1-c1cccnc1 [Pyridoclax] (max concentration tested 25000 nM) | 0 | 16.5 | 1.52 | 0.36 | 62.7 | 19.9 | 9.44
23 | CCNC(=O)Nc1ccc(-c2nc3c(c(N4CCOC[C@@H]4C)n2)CCN(C2COC2)C3)cc1 [RG-7603] (max concentration tested 2500 nM) | 0 | 6.56 | 3.02 | 1.5 | 56.2 | 33.8 | 32.4
24 | Nc1cc(F)ccc1NC(=O)/C=C/c1cnn(C/C=C/c2ccccc2)c1 [RGFP966] (max concentration tested 10000 nM) | 0 | 5.15 | 4.52 | 4.21 | 55.7 | 52.7 | 33.2
25 | C[C@@H]1C[C@H]2O[C@@H]2/C=C\C=C\C(=O)Cc2c(Cl)c(O)cc(O)c2C(=O)O1 [Radicicol] (max concentration tested 10000 nM) | 4.33 | 12.1 | 16.3 | 12.9 | 94 | 99.8 | 86.2
26 | Cc1nc(=O)c2cc(CN(C)c3ccc(C(=O)N[C@@H](CCC(=O)O)C(=O)O)s3)ccc2[nH]1 [Raltitrexed] (max concentration tested 1000 nM) | 0 | 6.69 | 15.1 | 3.16 | 29.9 | 71.5 | 14.7
27 | CN(C)Cc1ccc(S(=O)(=O)n2ccc(/C=C/C(=O)NO)c2)cc1 [Resminostat] (max concentration tested 10000 nM) | 2.12 | 13.8 | 7.57 | 6.36 | 101 | 100 | 84.1
28 | CN(C)C(=O)c1cc2cnc(Nc3ccc(N4CCNCC4)cn3)nc2n1C1CCCC1 [Ribociclib] (max concentration tested 10000 nM) | 0 | 6.07 | 1.85 | 1.83 | 67 | 25.4 | 28.2
29 | COc1cc(OC)c(/C=C/S(=O)(=O)Cc2ccc(OC)c(NCC(=O)O)c2)c(OC)c1 [Rigosertib] (max concentration tested 10000 nM) | 0 | 21.8 | 21.8 | 14.8 | 79.3 | 87.6 | 61.8
